Results: US12031897B2, “Target-locking single-molecule nanoscopy” (Memorial Sloan Kettering Cancer Center, priority 2019, dated 2024)
“Also recorded” adds a separate entry of the source.

Experiments:
[1] = system: Med22 foci at the Pou5f1 locus; assay: Med22 cluster signal at Pou5f1 upon inhibition (live-cell confocal/STED scans); assay type: cell-based, mouse; conditions: 1 μM JQ1 or 10 μM Flavopiridol
[2] = system: Cdk9 foci at the Pou5f1 locus; assay: Cdk9 cluster signal at Pou5f1 upon inhibition (live-cell confocal/STED scans); assay type: cell-based, mouse; conditions: for Cdk9 signal at Pou5f1 upon inhibition: 1 μM JQ1 (within 1 min) or 10 μM Flavopiridol
Text: If rapid Pou5f1 shut-down reflects significant Cdk9 portion being recruited through Brd4-acetylated histone recognition, both Brd4 and Cdk9 clustering would dissipate upon JQ1 inhibition. […] Cdk9/Med22 focal accumulation appears to be stabilized through highly-specific molecular recognition-multiple Brd4 molecules binding to multiple acetylated targets throughout the heavily modified Pou5f1 enhancer region—rather than possibly less-selective physicochemical forces, e.g. driven by low-complexity protein domains and RNA.
For real-time confocal and STED imaging, example implementations may program the wave generator to scan 2 μm×2 μm or 1 μm×1 μm xy areas in 0.8 sec or 0.2 sec respectively. 3D scanning was performed (via, e.g., detection system 150) by acquiring 5 xy scans while moving the stage by 0.5 μm in z between scans. TTL pulses corresponding to single-photon events from the APDs, together with the trigger pulses from the wave generator were detected using a field-programmable gate array (FPGA) data acquisition system (National Instruments, PCIe-7852R).
Before imaging, cells were seeded onto 8-chamber coverglass (LabTek, 155411) coated with 5 μg/ml laminin (BioLamina LN511), in −2i media (OMG) or +2i media (NMG) and appropriate drugs. For SiR staining, cells were labeled with media containing 0.3 μM SiR-BG for 10 mins, at 37° C., followed by three washes with new media.
To generate OMG SNAP-Cdk9 targeted cells, OMG-1 mESCs (1×106) were transfected with 10 μg SNAP-Cdk9 donor vector and 0.6 μg espCas9-gRNA-Cdk9 vector. 10 days after transfection, the cells were trypsinized, labeled with SiR-BG and subjected to FACS, generating a first-round SiR-positive pool. This pool was then expanded, stained with SiR-BG and subjected to second FACS round and individual clones were picked and expanded.

[3] = system: CMV mini-gene transcription site (tdPCP-EGFP nascent RNA); assay: tdPCP-EGFP nascent transcription dynamics at the CMV mini-gene after inhibitor addition (wide-field live-cell imaging); assay type: cell-based, human; conditions: U-2 OS cells, after adding 10 μM flavopiridol or 10 μM triptolide, individual transcription site traces, mean±S.D.
Text: It can be observed that Pol II accumulates at sites of active nascent transcription. Example implementations may first image Pol II dynamics relative to transcription from a single promoter in a synthetic “mini-gene” system, stably integrated as single copies in U-2 OS cells (FIGS. 4A, 11A-11C). Example implementations may track nascent RNA production via phage PP7-derived stem-loops (24×PP7) and a tandem-dimer phage coat protein EGFP fusion (tdPCP-EGFP).
It can be observed in various embodiments that target-locking enables tracking Pol II dynamics during the transcription cycle. […]
Wide-Field Cell Imaging Experiments. […] The CCD data were analyzed using IDL 6.4 (ITTVIS). Maximum projection images were calculated for each stack, and the resulting 11 sec/frame movie was used to track the intensities of individual tdPCP-EGFP-tagged transcription sites. […] The auto-correlation function was calculated (for the tdPCP-EGFP fluctuation analysis), or the data were imported in Origin 8.5.0 (OriginLab) and the trace fitted to a single-exponential decay (for the transcription inhibition experiments).

Row | SMILES | Med22 signal at Pou5f1 upon inhibition [1] | Cdk9 signal at Pou5f1 upon inhibition [2] | Hill equation n, relative Cdk9 signal vs. [JQ1] ([2]; Pou5f1) | tdPCP-EGFP exponential decay time [3] [s]
1 | Cc1sc2c(c1C)C(c1ccc(Cl)cc1)=N[C@@H](CC(=O)OC(C)(C)C)c1nnc(C)n1-2 [JQ1] | drop close to noise-floor | drop sharply; also recorded: drop close to noise-floor | 0.8±0.1 | –
2 | CN1CC[C@H](c2c(O)cc(O)c3c(=O)cc(-c4ccccc4Cl)oc23)[C@H](O)C1 [flavopiridol] | not lost | not lost | – | 132 ± 38
3 | CC(C)[C@]12O[C@H]1[C@@H]1O[C@]13[C@]1(O[C@H]1C[C@H]1C4=C(CC[C@@]13C)C(=O)OC4)[C@@H]2O [triptolide] | – | – | – | 179 ± 57
